# Patent US9572343B2, “Active compound combinations” (BAYER CROPSCIENCE AG, priority 2012, dated 2017)
# Tests used:
# Format in all cases: in vivo
# Septoria tritici = test: Septoria tritici-test (wheat)/preventive; settings: Table F1
# Description: (§1) Solvent: 49 parts by weight of N,N-dimethylacetamide Emulsifier: 1 part by weight of alkylaryl polyglycol ether To produce a suitable preparation of active compound, 1 part by weight of active compound or active compound combination is mixed with the stated amounts of solvent and emulsifier, and the concentrate is diluted with water to the desired concentration. To test for preventive activity, young plants are sprayed with the preparation of active compound or active compound combination at the stated rate of application. After the spray coating has been dried, the plants are sprayed with a spore suspension of Septoria tritici.
# Leptosphaeria nodorum = Leptosphaeria nodorum test (wheat)/preventive; settings: Table C1
# Description: as §1, with “Leptosphaeria nodorum.” for “Septoria tritici.”
# Sphaerotheca fuliginea = test: Sphaerotheca test (cucumbers)/preventive; settings: Table G1
# Description: (§2) Solvent: 24.5 parts by weight of acetone • 24.5 parts by weight of dimethylacetamide Emulsifier: 1 part by weight of alkylaryl polyglycol ether To produce a suitable preparation of active compound, 1 part by weight of active compound is mixed with the stated amounts of solvent and emulsifier, and the concentrate is diluted with water to the desired concentration. To test for preventive activity, young plants are sprayed with the preparation of active compound at the stated rate of application. After the spray coating has dried on, the plants are inoculated with an aqueous spore suspension of Sphaerotheca fuliginea.
# Uromyces appendiculatus = test: Uromyces test (beans)/preventive; settings: for pest or weed control at 0.5 ppm / pest or weed control at 2 ppm: Table H2; for pest or weed control at 0.5 ppm: application rate 0.5 ppm a.i.; for pest or weed control at 2 ppm: application rate 2 ppm a.i.; for Efficacy in % found: application rate 0.25 ppm a.i.
# Description: (§3) Solvent: 24.5 parts by weight of acetone • 24.5 parts by weight of dimethylacetamide
# (§4) Emulsifier: 1 part by weight of alkylaryl polyglycol ether
# (§5) To produce a suitable preparation of active compound, 1 part by weight of active compound is mixed with the stated amounts of solvent and emulsifier, and the concentrate is diluted with water to the desired concentration.
# (§6) To test for preventive activity, young plants are sprayed with the preparation of active compound at the stated rate of application. After the spray coating has dried on, the plants are inoculated with an aqueous spore suspension of the causal agent of bean rust (Uromyces appendiculatus) and then remain for 1 day in an incubation cabinet at approximately 20° C. and a relative atmospheric humidity of 100%.
# The plants are then placed in a greenhouse at approximately 21° C. and a relative atmospheric humidity of approximately 90%.
# The test is evaluated 10 days after the inoculation. 0% means an efficacy which corresponds to that of the untreated control, while an efficacy of 100% means that no disease is observed.
# Phakopsora pachyrhizi = test: Phakopsora test (soybeans)/preventive; settings: for pest or weed control at 1 ppm: Table D2, application rate 1 ppm a.i.
# [1] = tested on: Blumeria graminis f.sp. hordei; test: Blumeria test (barley)/preventive; settings: Table B1; application rate 40 ppm a.i.
# Description: Solvent: 49 parts by weight of N,N-dimethylacetamide Emulsifier: 1 part by weight of alkylaryl polyglycol ether To produce a suitable preparation of active compound, 1 part by weight of active compound or active compound combination is mixed with the stated amounts of solvent and emulsifier, and the concentrate is diluted with water to the desired concentration. To test for preventive activity, young plants are sprayed with the preparation of active compound or active compound combination at the stated rate of application. After the spray coating has been dried, the plants are dusted with spores of Blumeria graminis f.sp. hordei.
# Alternaria solani = test: Alternaria test (tomatoes)/preventive
# Description: as §3, §4, §5
# as §6, with “Alternaria solani. The plants are” for “the causal agent of bean rust (Uromyces appendiculatus) and”, “placed” for “remain for 1 day”
# The test is evaluated 3 days after the inoculation. 0% means an efficacy which corresponds to that of the untreated control while an efficacy of 100% means that no disease is observed.
# Pyrenophora teres = test: Pyrenophora teres-test (barley)/preventive; settings: Table E1
# Description: Solvent: 49 parts by weight of N,N-dimethylacetamide
# as §4
# To produce a suitable preparation of active compound, 1 part by weight of active compound or active compound combination is mixed with the stated amounts of solvent and emulsifier, and the concentrate is diluted with water to the desired concentration.
# To test for preventive activity, young plants are sprayed with the preparation of active compound or active compound combination at the stated rate of application.
# After the spray coating has been dried, the plants are sprayed with a spore suspension of Pyrenophora teres. The plants remain for 48 hours in an incubation cabinet at approximately 20° C. and a relative atmospheric humidity of approximately 100%.
# The plants are placed in the greenhouse at a temperature of approximately 20° C. and a relative atmospheric humidity of approximately 80%.
# The test is evaluated 8 days after the inoculation. 0% means an efficacy which corresponds to that of the untreated control, while an efficacy of 100% means that no disease is observed.
# Venturia inaequalis = test: Venturia test (apples)/preventive; settings: Table I1; application rate 1 ppm a.i.
# Description: as §2, with “application.” for “application. After the spray coating has dried on, the plants are inoculated with an aqueous spore suspension of Sphaerotheca fuliginea.”
# [2] = Uromyces appendiculatus, 240 h, read-out: Efficacy in % found
# [3] = Table A1, application rate 0.5 ppm a.i.
# [4] = Table D1, application rate 0.5 ppm a.i.
# [5] = Phakopsora pachyrhizi, 168 h, read-out: Efficacy in % found
structure (smiles),measurement,setting,value
"Fc1ccc([C@]2(Cn3cncn3)O[C@H]2c2ccccc2Cl)cc1 (racemic) [1.12, epoxiconazole]",Efficacy in % found,Septoria tritici; application rate 40 ppm a.i.,14%
same,Efficacy in % found,Leptosphaeria nodorum; application rate 40 ppm a.i.,60%
same,Efficacy in % found,Sphaerotheca fuliginea; application rate 1 ppm a.i.,0%
same,pest or weed control at 0.5 ppm,Uromyces appendiculatus; [2],30%
same,pest or weed control at 0.5 ppm,"Phakopsora pachyrhizi; Phakopsora pachyrhizi, 168 h, Table D1, application rate 0.5 ppm a.i., read-out: Efficacy in % found",23%
"Cn1cc(C(=O)Nc2cccc3c2[C@@H]2CC[C@H]3C2=C(Cl)Cl)c(C(F)F)n1 (racemic) [2.29, benzovindiflupyr]",Efficacy in % found,[1],0%
same,Efficacy in % found,Alternaria solani; [3],40%
same,Efficacy in % found,Pyrenophora teres; application rate 40 ppm a.i.,0%
same,Efficacy in % found,Phakopsora pachyrhizi; [4],8%
"CC(C1CC1)C(O)(Cn1cncn1)c1ccc(Cl)cc1 (centres unmarked) [1.5, cyproconazole]",Efficacy in % found,"Alternaria solani; Table A2, application rate 5 ppm a.i.",23%
same,Efficacy in % found,Septoria tritici; application rate 80 ppm a.i.,0%
same,Efficacy in % found,Sphaerotheca fuliginea; application rate 1.25 ppm a.i.,52%
same,pest or weed control at 0.5 ppm,Uromyces appendiculatus; [2],50%
"CC1(C)CCC(Cc2ccc(Cl)cc2)C1(O)Cn1cncn1 (centres unmarked) [1.30, metconazole]",Efficacy in % found,Leptosphaeria nodorum; application rate 40 ppm a.i.,30%
same,pest or weed control at 2 ppm,Uromyces appendiculatus; [2],30%
"OC(Cc1ccccc1Cl)(Cn1nc[nH]c1=S)C1(Cl)CC1 (centres unmarked) [1.41, prothioconazole]",Efficacy in % found,Leptosphaeria nodorum; application rate 80 ppm a.i.,30%
same,pest or weed control at 2 ppm,Uromyces appendiculatus; [2],30%
same,pest or weed control at 1 ppm,Phakopsora pachyrhizi; [5],60%
"CC(C)(C)C(O)(CCc1ccc(Cl)cc1)Cn1cncn1 (centres unmarked) [1.47, tebuconazole]",Efficacy in % found,Septoria tritici; application rate 80 ppm a.i.,14%
same,pest or weed control at 1 ppm,Phakopsora pachyrhizi; [5],50%
"Cn1cc(C(=O)Nc2ccc(F)cc2-c2ccc(Cl)c(Cl)c2)c(C(F)F)n1 [2.1, bixafen]",Efficacy in % found,Alternaria solani; [3],43%
same,Efficacy in % found,Uromyces appendiculatus; Table H1,30%
same,Efficacy in % found,Pyrenophora teres; application rate 80 ppm a.i.,86%
same,Efficacy in % found,Phakopsora pachyrhizi; [4],0%
same,Efficacy in % found,Venturia inaequalis,36%
"O=C(NCCc1ncc(C(F)(F)F)cc1Cl)c1ccccc1C(F)(F)F [2.6, fluopyram]",Efficacy in % found,[1],0%
same,Efficacy in % found,"Alternaria solani; Table A1, application rate 2 ppm a.i.",34%
same,pest or weed control at 1 ppm,"Uromyces appendiculatus; Uromyces appendiculatus, 240 h, Table H1, application rate 1 ppm a.i., read-out: Efficacy in % found",15%
same,Efficacy in % found,Pyrenophora teres; application rate 40 ppm a.i.,57%
same,pest or weed control at 2 ppm,"Phakopsora pachyrhizi; Phakopsora pachyrhizi, 168 h, Table D1, application rate 2 ppm a.i., read-out: Efficacy in % found",0%
"Cn1cc(C(=O)Nc2ccccc2-c2cc(F)c(F)c(F)c2)c(C(F)F)n1 [2.8, fluxapyroxad]",Efficacy in % found,[1],30%
same,Efficacy in % found,Alternaria solani; [3],58%
same,Efficacy in % found,Uromyces appendiculatus; Table H1,0%
same,Efficacy in % found,Pyrenophora teres; application rate 80 ppm a.i.,57%
same,Efficacy in % found,Phakopsora pachyrhizi; [4],0%
